# Data as given in publication PMC7202080 (Cell calcium, 2020).
# Target: TRPM7 (Mus musculus, UniProt Q923J1)
# Test: Fura-2 Ca2+ imaging in LS8 cells
# Type: cell-based
# Chain of TRPM7 (Q923J1 whole entry): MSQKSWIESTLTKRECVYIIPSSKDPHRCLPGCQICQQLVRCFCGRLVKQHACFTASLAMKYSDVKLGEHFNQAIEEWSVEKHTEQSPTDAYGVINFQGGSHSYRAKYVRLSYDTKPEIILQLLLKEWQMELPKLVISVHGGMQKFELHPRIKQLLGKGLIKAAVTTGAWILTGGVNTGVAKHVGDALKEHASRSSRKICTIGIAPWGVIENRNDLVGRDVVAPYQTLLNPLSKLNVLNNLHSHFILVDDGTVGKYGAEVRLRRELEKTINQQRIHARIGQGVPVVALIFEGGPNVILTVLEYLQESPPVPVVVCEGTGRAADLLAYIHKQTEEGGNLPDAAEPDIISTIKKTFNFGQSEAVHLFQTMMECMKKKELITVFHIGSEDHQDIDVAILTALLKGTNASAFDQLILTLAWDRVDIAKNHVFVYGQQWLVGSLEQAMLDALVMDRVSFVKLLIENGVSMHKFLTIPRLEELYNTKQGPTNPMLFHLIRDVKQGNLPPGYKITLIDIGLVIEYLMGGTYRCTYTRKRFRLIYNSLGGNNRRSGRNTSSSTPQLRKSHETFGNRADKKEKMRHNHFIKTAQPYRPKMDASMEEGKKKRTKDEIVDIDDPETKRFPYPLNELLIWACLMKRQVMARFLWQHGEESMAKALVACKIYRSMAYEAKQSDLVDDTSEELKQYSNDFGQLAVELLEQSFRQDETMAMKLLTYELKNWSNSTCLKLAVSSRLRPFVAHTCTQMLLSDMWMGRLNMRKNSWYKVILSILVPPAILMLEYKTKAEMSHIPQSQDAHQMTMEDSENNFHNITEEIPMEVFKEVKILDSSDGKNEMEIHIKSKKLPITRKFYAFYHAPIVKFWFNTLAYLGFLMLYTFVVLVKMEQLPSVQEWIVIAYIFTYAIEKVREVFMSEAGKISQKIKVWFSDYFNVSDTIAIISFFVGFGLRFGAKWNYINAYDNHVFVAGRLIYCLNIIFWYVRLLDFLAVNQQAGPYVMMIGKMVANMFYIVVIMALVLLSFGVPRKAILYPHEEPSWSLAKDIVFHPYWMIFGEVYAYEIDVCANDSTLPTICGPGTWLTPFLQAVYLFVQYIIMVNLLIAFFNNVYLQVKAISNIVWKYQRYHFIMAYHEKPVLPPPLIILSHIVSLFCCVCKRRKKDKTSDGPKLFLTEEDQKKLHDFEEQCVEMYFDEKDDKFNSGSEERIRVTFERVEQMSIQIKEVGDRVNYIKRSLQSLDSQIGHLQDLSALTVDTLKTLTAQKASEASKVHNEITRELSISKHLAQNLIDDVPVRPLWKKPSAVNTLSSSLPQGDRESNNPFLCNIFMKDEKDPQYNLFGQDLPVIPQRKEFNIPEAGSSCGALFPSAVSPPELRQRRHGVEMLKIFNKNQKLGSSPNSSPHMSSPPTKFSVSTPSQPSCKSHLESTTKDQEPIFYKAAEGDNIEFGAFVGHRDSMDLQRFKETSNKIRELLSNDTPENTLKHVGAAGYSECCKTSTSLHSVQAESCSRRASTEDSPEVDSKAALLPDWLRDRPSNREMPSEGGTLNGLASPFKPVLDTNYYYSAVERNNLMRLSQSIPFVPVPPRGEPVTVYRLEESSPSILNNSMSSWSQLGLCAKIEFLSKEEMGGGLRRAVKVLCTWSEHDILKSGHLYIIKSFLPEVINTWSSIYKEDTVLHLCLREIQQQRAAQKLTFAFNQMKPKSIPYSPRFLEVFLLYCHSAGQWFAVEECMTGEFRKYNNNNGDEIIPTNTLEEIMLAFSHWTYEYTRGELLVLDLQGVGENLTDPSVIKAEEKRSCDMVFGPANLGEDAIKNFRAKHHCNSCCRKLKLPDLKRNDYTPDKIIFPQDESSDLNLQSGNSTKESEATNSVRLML
compound,measurement,value
"Oc1ccc2c3c1O[C@H]1c4oc5ccccc5c4C[C@@]4(O)[C@@H](C2)N(CC2CC2)CC[C@]314 [NAL, naltriben]",EC50,~45 µM
